Article PMC4669722, “Antitumour potential of BPT: a dual inhibitor of cdk4 and tubulin polymerization” (Cell Death & Disease, 2015)
Where two headings read alike, the source gives them in different places.

Legend:
PKCα = PKCα (Homo sapiens, UniProt P17252); assay: Kinase profiling (Millipore), PKCα; format: biochemical
Protocol: (§1) The in vitro kinase assays for testing against Cdk4-cyclin D1, Cdk2-cyclin A, Cdk1-cyclin B1 and Cdk9-cyclin T1 were performed in-house. The methodology and results have been reported previously.[20], [30], [31], [32], [45] The kinase profiling for 58 representative kinases was carrried out commercially at Millipore Bioscience Division, Livingston, UK.

Cdk2-cyclin A = Cdk2-cyclin A (Homo sapiens, UniProt P24941); assay: In vitro kinase assay, Cdk2-cyclin A (in-house); format: biochemical; settings: three independent experiments; read-out: IC50 (mean±S.D.), Cdk2-cyclin A
Protocol: as §1

A549 and Calu-1 cells = assay: Colony formation (clonogenic) assay, A549 and Calu-1; format: cell-based, human; settings: p53+ A549 and p53-null Calu-1, 12-day experiment
Protocol: A549 and Calu-1 cells were plated at a concentration of 500 cells per well in 35 mm/6-well plates in 2 ml complete medium. The plates were incubated for 24 h stabilization and further incubated with a range of concentrations of fascaplysin and BPT for 24 h. Plates were then gently washed with PBS, replaced with fresh medium and incubated at 37 °C. After 10–12 days, cells were fixed in methanol:acetic acid (2 : 1) fixative for 10 min, washed, air dried and stained with 1% crystal violet. The colonies were evaluated by visual counts. The number of colonies in treated cultures was expressed as a percentage of the control cultures. All results represent means and standard deviations from at least three independent experiments.

[1] = test system: BNL SV A.8 (mouse hepatic; SV40-mediated transformed cells); assay: Cell proliferation (MTT) assay, BNL SV A.8; format: cell-based
Protocol: All 10 human cancer cell lines were maintained at 37 °C in 5% CO2 in RPMI-1640 medium, supplemented with 10% foetal calf serum and 100 μg/ml normocin. The 10 cancer cell lines used for screening were all obtained from ATCC (Manassas, VA, USA); they were the NSCLC (a form of cancer that is resistant to chemotherapy) lines: NCI-H460 (pRb^+, p53^+), A549 (pRb^+, p53^+), Calu-1 (pRb^+, p53-null), NCI-H1299 (pRb^+, p53-null), NCI-H358 (pRb-null, p53-null); the colon cancer line LS174T (pRb^+, p53^+); the prostate cancer line PC-3 (pRb^+, p53-null); the pancreatic cancer line MiaPaca (pRb^+, p53-mutant). The genotypes within brackets indicate the status of the tumour suppressor proteins pRb and p53. The mouse embryonic normal hepatic cell line (BNL CL2) and its SV40 large T-antigen-transformed counterpart cell line (BNL SV A.8) were also purchased from ATCC. The large T-antigen inactivates the tumour suppressor proteins p53 and pRb. The detailed procedure of cell proliferation (MTT) assay and IC50 determination was described previously.[32]

[2] = test system: BNL SV A.8 (mouse embryonic SV40-transformed hepatic cells); assay: Flow cytometric cell cycle analysis, BNL SV A.8; format: cell-based; settings: 48 h
Protocol: The untreated (control) and treated (with test compounds) cells were harvested by trypsinization, washed once with PBS and then fixed in 70% chilled (−20 °C) ethanol for minimum 1 h. After the fixation step, cells were centrifuged for 5 min at 3000 × g at room temperature, and the pellet was suspended in PBS containing 50 μg/ml propidium iodide (Sigma-Aldrich, Dorset, UK; cat. no. P-4170) and 0.5 mg/ml DNase-free ribonuclease (Sigma-Aldrich; cat. no. R-5503). The cells were stained for 1 h in the dark at 4 °C. Cell cycle analysis was performed on the Beckman Coulter (Epics Altra) fluorescence-activated cell sorter (Beckman Coulter UK Ltd, Buckinghamshire, UK). To gate all the events that represent single cells, and not cell doublets or cell clumps, the following analyses were performed on the samples. Cytograms of propidium iodide fluorescence peak signal versus integrated fluorescence or the linear signal were plotted. All data points on the straight line were isolated in a single gate and the gated data was further used for plotting a histogram that represents a complete cell cycle. The total number of events was not allowed to exceed 200 events per s. Data acquisition was stopped after a minimum of 10 000 events had been collected.

MAPK1 = MAPK1 (Homo sapiens, UniProt P27361); assay: Kinase profiling (Millipore), MAPK1; format: biochemical
Chain of MAPK1 (P27361 2-379 limits assumed): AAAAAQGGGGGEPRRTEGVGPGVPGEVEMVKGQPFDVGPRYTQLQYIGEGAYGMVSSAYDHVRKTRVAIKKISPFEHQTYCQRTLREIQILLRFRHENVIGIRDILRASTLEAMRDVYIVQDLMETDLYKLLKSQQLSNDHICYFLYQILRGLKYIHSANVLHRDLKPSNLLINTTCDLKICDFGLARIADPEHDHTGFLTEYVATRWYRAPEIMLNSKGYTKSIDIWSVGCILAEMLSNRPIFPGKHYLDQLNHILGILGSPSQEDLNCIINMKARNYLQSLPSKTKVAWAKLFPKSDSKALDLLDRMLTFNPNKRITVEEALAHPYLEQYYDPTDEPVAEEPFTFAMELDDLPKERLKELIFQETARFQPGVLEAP
Protocol: as §1

[3] = BNL SV A.8, concentration used in long-term survival assay (Fig. S3)

O=C(c1ccccc1-c1ccccc1)N1CCc2c([nH]c3ccccc23)C1 [BPT, 2-(biphenyl-2-carbonyl)-2,3,4,9-tetrahydro-1H-pyrido[3,4-b]indole]
IC50 (PKCα): > 10000 nM | IC50 (Cdk2-cyclin A): 831000 ± 15500 nM | colony formation efficiency (A549 and Calu-1 cells): significant reduction | IC30 [1, 3]: 400 nM | IC70 [1, 3]: 900 nM | IC50 ([1]; Mus musculus, 48 h, MTT, read-out: IC50 cell growth inhibition, BNL SV A.8): 750 nM | IC20 ([1]; Mus musculus, BNL SV A.8, concentration used in long-term survival assay (Fig. S3)): 250 nM | IC50 ([1]; Mus musculus, BNL SV A.8, concentration used in long-term survival assay (Fig. S3), read-out: IC50): 600 nM | cells in Sub G1 (apoptosis) ([2]; BNL SV A.8, IC50 concentration): 43% | cells in Sub G1 (apoptosis) ([2]; BNL SV A.8, IC70 concentration): 51% | IC50 (MAPK1): > 10000 nM
